In the Kinase Knowledgebase extract (Sharma et al. 2016):
Values after ≈ are worked out from the molar mass of the structure shown. Values joined by “and” are separate entries in the source; they are usually repeats but may differ in a detail not shown here. Identical values can stand only once.

Legend:
EGFR (human) [1] = molecular target: EGFR (human) (UniProt P00533); conditions: skbr3
EGFR (human) [2] = molecular target: EGFR (human) (UniProt P00533); conditions: a2780ddp
EGFR (human) [3] = molecular target: EGFR (human) (UniProt P00533); conditions: a2780s
EGFR (human) [4] = molecular target: EGFR (human) (UniProt P00533); conditions: a431
EGFR (human) [5] = molecular target: EGFR (human) (UniProt P00533); conditions: sw 620
EGFR (human) [6] = molecular target: EGFR (human) (UniProt P00533); conditions: mda435
EGFR = EGFR (UniProt P00533)
EGFR (human) [7] = molecular target: EGFR (human) (UniProt P00533); conditions: lox
EGFR (human) [8] = molecular target: EGFR (human) (UniProt P00533); conditions: mcf-7
EGFR (human) [9] = molecular target: EGFR (human) (UniProt P00533); conditions: 3t3
EGFR (human) [10] = molecular target: EGFR (human) (UniProt P00533); conditions: her2/3t3

Chain of EGFR (human) (P00533 whole entry, looked up): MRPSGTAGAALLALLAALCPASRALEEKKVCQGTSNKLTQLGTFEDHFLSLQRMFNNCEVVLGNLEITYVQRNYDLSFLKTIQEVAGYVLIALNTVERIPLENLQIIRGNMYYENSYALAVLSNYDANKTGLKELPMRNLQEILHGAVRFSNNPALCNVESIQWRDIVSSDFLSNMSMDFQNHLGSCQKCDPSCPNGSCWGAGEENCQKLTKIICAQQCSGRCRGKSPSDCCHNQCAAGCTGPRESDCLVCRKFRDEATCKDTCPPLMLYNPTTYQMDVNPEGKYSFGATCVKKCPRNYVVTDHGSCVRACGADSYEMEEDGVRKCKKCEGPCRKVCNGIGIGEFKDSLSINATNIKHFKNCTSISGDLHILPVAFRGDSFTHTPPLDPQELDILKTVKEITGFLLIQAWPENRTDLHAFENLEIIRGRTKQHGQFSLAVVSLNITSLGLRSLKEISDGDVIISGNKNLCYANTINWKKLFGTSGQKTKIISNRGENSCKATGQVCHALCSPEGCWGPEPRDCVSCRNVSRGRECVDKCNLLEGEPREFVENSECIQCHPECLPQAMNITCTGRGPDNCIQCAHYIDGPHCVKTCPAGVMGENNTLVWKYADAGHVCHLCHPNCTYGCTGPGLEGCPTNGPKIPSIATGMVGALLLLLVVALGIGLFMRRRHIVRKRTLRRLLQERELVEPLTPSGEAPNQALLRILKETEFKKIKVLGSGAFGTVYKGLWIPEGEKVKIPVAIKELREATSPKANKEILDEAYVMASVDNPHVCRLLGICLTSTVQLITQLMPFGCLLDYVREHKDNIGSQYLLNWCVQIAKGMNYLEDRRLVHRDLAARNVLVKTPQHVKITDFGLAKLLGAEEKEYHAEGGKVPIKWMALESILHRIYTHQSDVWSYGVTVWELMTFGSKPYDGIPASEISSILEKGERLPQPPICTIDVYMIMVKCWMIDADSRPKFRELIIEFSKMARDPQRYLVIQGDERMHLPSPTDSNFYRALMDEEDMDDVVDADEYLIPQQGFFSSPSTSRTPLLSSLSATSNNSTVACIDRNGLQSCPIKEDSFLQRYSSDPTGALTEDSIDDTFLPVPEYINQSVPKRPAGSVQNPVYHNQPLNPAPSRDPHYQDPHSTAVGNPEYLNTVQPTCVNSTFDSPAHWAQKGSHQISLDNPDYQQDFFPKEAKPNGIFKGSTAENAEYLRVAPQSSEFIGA
Chain of EGFR (P00533 whole entry, looked up): as above

Row | IC50 (EGFR (human) [1]) [µg/mL] | IC50 (EGFR (human) [2]) [µg/mL] | IC50 (EGFR (human) [3]) [µg/mL] | IC50 (EGFR (human) [4]) | IC50 (EGFR (human) [5]) [µg/mL] | IC50 (EGFR (human) [6]) [µg/mL] | IC50 (EGFR) [nM] | IC50 (EGFR (human) [7]) [µg/mL] | IC100 (EGFR (human) [4]) [µM] | IC50 (EGFR (human) [8]) | IC50 (EGFR (human) [9]) | IC50 (EGFR (human) [10]) | Compound
1 | > 5 | > 5 | 3.33 (≈ 9.7 µM) | 3.92 µg/mL (≈ 11.4 µM) | > 5 | > 5 | – | – | – | – | – | – | N#Cc1cnc2cnc(F)cc2c1Nc1cccc(Br)c1
2 | 4.83 (≈ 10.7 µM) | 4 (≈ 8.87 µM) | 1.77 (≈ 3.92 µM) | 2.76 µg/mL (≈ 6.12 µM) | > 5 | > 5 | > 800 | – | – | – | – | – | CN(C)C/C=C/C(=O)Nc1cnc2ncc(C#N)c(Nc3cccc(Br)c3)c2c1
3 | 1.88 (≈ 5.3 µM) | – | – | 0.31 µg/mL and 0.209 µg/mL | 4.62 (≈ 13 µM) | 0.98 (≈ 2.77 µM) | – | 3.6 (≈ 10.2 µM) | 0.59 | 10900 nM and 3870 nM | – | – | CNc1cc2c(Nc3cccc(Br)c3)c(C#N)cnc2cn1
4 | 3.59 (≈ 8.52 µM) | 2.97 (≈ 7.05 µM) | 2.34 (≈ 5.56 µM) | 3.06 µg/mL (≈ 7.25 µM) | 4.72 (≈ 11.2 µM) | 4.2 (≈ 9.97 µM) | – | – | – | – | – | – | C[Si](C)(C)C#Cc1cc2c(Nc3cccc(Br)c3)c(C#N)cnc2cn1
5 | – | – | 0.5 (≈ 1.1 µM) | 0.5 µg/mL (≈ 1.1 µM) | 41 (≈ 90.4 µM) | 49 (≈ 108 µM) | – | 57 (≈ 126 µM) | – | – | – | – | N#Cc1cnc2cnc(NCCN3CCOCC3)cc2c1Nc1cccc(Br)c1
6 | 41 | 52 | 31 | 59 µg/mL | 42 | 47 | – | 56 | – | – | – | – | CN(C)c1cc[n+](-c2cc3c(Nc4cccc(Br)c4)c(C#N)cnc3cn2)cc1
7 | 2.9 (≈ 6.3 µM) | 1.8 (≈ 3.91 µM) | 1 (≈ 2.17 µM) | 0.4 µg/mL (≈ 0.869 µM) | 4.1 (≈ 8.91 µM) | 2.4 (≈ 5.21 µM) | – | – | – | – | – | – | COc1ccc(CNc2cc3c(Nc4cccc(Br)c4)c(C#N)cnc3cn2)cc1
8 | 0.0357 (≈ 0.079 µM) | – | – | 0.088 µg/mL (≈ 0.195 µM) | 0.356 (≈ 0.789 µM) | 0.464 (≈ 1.03 µM) | – | – | – | – | 0.272 µg/mL and 0.373 µg/mL | 0.106 µg/mL and 0.0436 µg/mL | CN(C)C/C=C/C(=O)Nc1cc2c(Nc3cccc(Br)c3)c(C#N)cnc2cn1
9 | 4.63 (≈ 12 µM) | – | – | 2.23 µg/mL (≈ 5.77 µM) | > 5 | > 5 | – | – | – | – | 4.48 µg/mL (≈ 11.6 µM) | > 5 µg/mL | CN(C)CCOc1cc2c(Nc3ccc(F)c(Cl)c3)c(C#N)cnc2cn1
10 | 4.1 (≈ 12.1 µM) | 3.1 (≈ 9.11 µM) | 3.5 (≈ 10.3 µM) | 0.4 µg/mL (≈ 1.18 µM) | > 5 | > 5 | – | – | – | – | – | – | N#Cc1cnc2cnc(N)cc2c1Nc1cccc(Br)c1
11 | 0.12 (≈ 0.295 µM) | 0.13 (≈ 0.32 µM) | – | 0.23 µg/mL (≈ 0.566 µM) | 0.17 (≈ 0.418 µM) | 0.88 (≈ 2.17 µM) | – | 0.07 (≈ 0.172 µM) | – | 980 nM and 400 nM | – | – | CC#CC(=O)Nc1cc2c(Nc3cccc(Br)c3)c(C#N)cnc2cn1
12 | – | – | – | – | – | – | > 100 | – | – | – | – | – | CC#CC(=O)Nc1cnc2ncc(C#N)c(Nc3ccc(F)c(Cl)c3)c2c1
